Reference: the supplement of paper PMC10307832

What was measured:
Experiment in all cases: relative viability (nuclei count vs DMSO), 5 days (fraction); higher = more cells survive
Venetoclax + Phenformin = compound: CC1(C)CCC(CN2CCN(c3ccc(C(=O)NS(=O)(=O)c4ccc(NCC5CCOCC5)c([N+](=O)[O-])c4)c(Oc4cnc5[nH]ccc5c4)c3)CC2)=C(c2ccc(Cl)cc2)C1 [Venetoclax] + N=C(N)NC(=N)NCCc1ccccc1 [Phenformin] (partner 250 µM)
Procedure, shortened: (§1)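 Nuclei were stained with Hoechst during a one-step fixation (final 0.05% Triton X-100, 1% formaldehyde, 1 ug/ml Hoechst) carried out 5 days after dosing, then counted on 4× images. The cells, lung cancer lines in 1536-well plates, had been dosed by pin tool the day after seeding with one drug alone or a fixed anchor-drug dose plus five library-drug doses (not always all listed) in √10 steps. Relative viability is the nuclei count in treated wells divided by that in vehicle wells, and each value is the median of duplicate plates.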

Selumetinib + Alpelisib = compound: Cn1cnc2c(F)c(Nc3ccc(Br)cc3Cl)c(C(=O)NOCCO)cc21 [Selumetinib] + Cc1nc(NC(=O)N2CCC[C@H]2C(N)=O)sc1-c1ccnc(C(C)(C)C(F)(F)F)c1 [Alpelisib] (partner 2 µM)
Procedure, shortened: as §1

Venetoclax + Linsitinib = compound: CC1(C)CCC(CN2CCN(c3ccc(C(=O)NS(=O)(=O)c4ccc(NCC5CCOCC5)c([N+](=O)[O-])c4)c(Oc4cnc5[nH]ccc5c4)c3)CC2)=C(c2ccc(Cl)cc2)C1 [Venetoclax] + C[C@]1(O)C[C@@H](c2nc(-c3ccc4ccc(-c5ccccc5)nc4c3)c3c(N)nccn32)C1 [Linsitinib] (partner 1 µM)
Procedure, shortened: as §1

Venetoclax + Vorinostat = compound: CC1(C)CCC(CN2CCN(c3ccc(C(=O)NS(=O)(=O)c4ccc(NCC5CCOCC5)c([N+](=O)[O-])c4)c(Oc4cnc5[nH]ccc5c4)c3)CC2)=C(c2ccc(Cl)cc2)C1 [Venetoclax] + O=C(CCCCCCC(=O)Nc1ccccc1)NO [Vorinostat] (partner 1 µM)
Procedure, shortened: as §1

UMC-11 showed a relative viability (Venetoclax + Phenformin; first compound 0.01 µM) of 0.286, a relative viability (Venetoclax + Phenformin; first compound 0.03162 µM) of 0.319 and a relative viability (Venetoclax + Phenformin; first compound 0.1 µM) of 0.32. It also gave a relative viability (Venetoclax + Phenformin; first compound 0.3162 µM) of 0.291, a relative viability (Venetoclax + Phenformin; first compound 1 µM) of 0.292 and a relative viability (Selumetinib + Alpelisib; first compound 0.02 µM) of 0.97. For the same cell line, the relative viability (Selumetinib + Alpelisib; first compound 0.06325 µM) was 1.1, the relative viability (Selumetinib + Alpelisib; first compound 0.2 µM) was 1.01 and the relative viability (Selumetinib + Alpelisib; first compound 0.6325 µM) was 0.986. For the same cell line, the relative viability (Venetoclax + Linsitinib; first compound 0.01 µM) was 1, the relative viability (Venetoclax + Linsitinib; first compound 0.03162 µM) was 1.01 and the relative viability (Venetoclax + Linsitinib; first compound 0.1 µM) was 0.912. For the same cell line, the relative viability (Venetoclax + Linsitinib; first compound 0.3162 µM) was 0.932, the relative viability (Venetoclax + Linsitinib; first compound 1 µM) was 0.959 and the relative viability (Venetoclax + Vorinostat; first compound 0.01 µM) was 0.329. For the same cell line, the relative viability (Venetoclax + Vorinostat; first compound 0.03162 µM) was 0.29, the relative viability (Venetoclax + Vorinostat; first compound 0.1 µM) was 0.274 and the relative viability (Venetoclax + Vorinostat; first compound 0.3162 µM) was 0.23. For the same cell line, the relative viability (Venetoclax + Vorinostat; first compound 1 µM) was 0.261.
